{"source": "patent US20100184811A1", "about": "“ISONIAZID MEDIATED HEALING OF WOUNDS AND ULCERS” (priority 2006, published 2010)", "key": {"[1]": {"test": "Tolerability and body weight in the rat wound model", "protocol": "Rats were anesthetized by intraperitoneal (i.p.) injection of 100 mg/kg ketamine (Parke-Davis, Berlin, Germany) and 15 mg/kg xylazin (Bayer, Leverkusen, Germany). A standardized pedunculated dorsal ischemic skin flap (3 cm×7 cm) was lifted, replaced, and fixed with metal clips. Two full-thickness wounds were made using punch biopsies (8 mm diameter), one in the ischemic flap region and one non-ischemic outside the flap in the neck.\nTo the control group, comprising 10 rats, 10 ml/kg of sterile isotonic saline was administered. The compounds were masked to the investigators. The first dose was given directly after wounding. Wounds were traced (outer margins) on OpSite* Flexigrid* (Smith & Nephew) 30 minutes after wounding day 0 and after dressing (Hydrosorb, Hartmann) removal and wound cleansing on subsequent days (Table I). On post-wounding day 2, intracutaneous oxygen tensions were measured 1 hour after administration of compounds with Licox® (Integra LifeSciences Corporation) Clark type probe under full anesthesia. The Licox® probe was positioned at the wound edges using a Venflon catheter (FIG. 1)."}, "ischemic wounds": {"tested_on": "ischemic wounds", "test": "Ischemic cutaneous wound healing in a validated rat model (dorsal ischemic skin flap)", "assay_type": "in vivo, Male Sprague-Dawley rats", "conditions": "10 mg/kg i.p. b.i.d., 14 days; 8 mm full-thickness wound in ischemic flap; p=0.014", "procedure": "The compounds were masked to the investigators. The first dose was given directly after wounding.\nResults are expressed as mean±SD or mean±SEM. Wound healing differences among the two groups were calculated as the area under the wound healing curves (FIG. 2A+B) with correction according to Bonferroni (p=0.035). Licox® results were analyzed by the Wilcoxon test."}, "[2]": {"tested_on": "non-ischemic cutaneous lesions / non-TB chronic wounds", "conditions": "cited from earlier work"}}, "note": "Entries after “also recorded” stand apart in the source; their conditions may differ."}
{"smiles": "NNC(=O)c1ccncc1", "note": "[Isoniazid, pyridine-4-carbohydrazide]", "values": [{"measurement": "Body weight difference among groups", "setting": "[1]; before operation or after 14 days of treatment", "value": "did not differ significantly"}, {"measurement": "Body weights before operation (Mean ± SD)", "setting": "[1]; before operation, n=10", "value": "360 ± 8", "unit": "gram"}, {"measurement": "Rats that died", "setting": "[1]; group of 10 rats, death 5 days after operation", "value": "one"}, {"measurement": "Body weights on post-wounding day 14 (Mean ± SD)", "setting": "[1]; post operative day 14, 10 mg/kg i.p. b.i.d., n=9", "value": "341 ± 12", "unit": "gram"}, {"measurement": "Healing of ischemic wounds compared with the control (area under the wound healing curves)", "setting": "ischemic wounds", "value": "promoted healing of the ischemic wounds; also recorded: stimulated ischemic wound healing"}, {"measurement": "Effect on healing of a variety of non-TB chronic wounds", "setting": "[2]; case report, Martyn and Campell (1963)", "value": "stimulating effects"}, {"measurement": "Effect on ischemic tissue", "setting": "[2]; conclusion of Martyn and Campell (1963)", "value": "little effect on ischemic tissue"}, {"measurement": "Healing of coincidental non-ischemic cutaneous lesions", "setting": "[2]; tuberculosis and non-tuberculosis patients treated with isoniazid (Potter and Taylor, 1969)", "value": "healed"}]}
